Data set [1] can be described thus: Photochromic PMMA cast film: initial coloration density, maximum absorption wavelength and fatigue life in xenon fadeometer (Example 9).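 For Initial color density: initial color density is an absorbance value so the % unit is wrong.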 The settings on record: PMMA cast film 0.1 mm; for λmax / Initial color density: xenon light; for Initial color density / T1/2: no stabilizer; for T1/2: time for color density to fall to half of initial value, xenon fadeometer. Format: physicochemical. From the text: The thickness of the cast film was adjusted to 0.1 mm.
(§1) T1/2 is defined as the time required for the color density to decrease to half of its initial value when the film is exposed to the fadeometer.

The nature of data set [2]: Durability of poly(allyl diglycol carbonate) lens impregnated with the compound in silicone oil, as in Example 9 (Example 10). Format: physicochemical. Details: Initial color density: unit not given here. As to conditions: silicone oil impregnation; for Initial color density: 1.0×10^-4 mole/g; for T1/2: xenon fadeometer. Here is the method: as §1
The solution was impregnated in the surface of a lens composed of poly(allyl diglycol carbonate) at 200° C. for 1 hour. The concentration of the solution was adjusted to 1.0×10^-4 mole/g.

Data on 32 compounds can be found in US5708063A, “Photochromic compound” (Tokuyama Corporation, priority 1993, dated 1998).

SMILES strings stand for the structures.

With `CC1=C2C(=O)OC(=O)C2C2(c3sc4c(c31)CCCC4)C1CCCC2CCC1` (centres unmarked) [(G), reference compound], in data set [1], the λmax was found to be 585 nm, the Initial color density came out at 0.71% and the T1/2 came to 10 h.

In data set [1], `CCCCC1CC2CCCC(C1)C21c2sc(C)c(CC)c2C(C2C(I)C2I)=C2C(=O)N(CC3CCCCC3C#N)C(=O)C21` (centres unmarked) [(27)] displayed a λmax of 553 nm, an Initial color density of 0.68% and a T1/2 of 51 h.

In data set [1], `COc1cc2c(c(OC)c1OC)C1(C3CC4CC1CC(OC)(C4)C3)C1C(=O)N(CC(=O)NCCBr)C(=O)C1=C2C1CC1C(Cl)(Cl)Cl` (centres unmarked) [(39)] gave a λmax of 527 nm, an Initial color density of 0.58% and a T1/2 of 65 h.

`CC1=C2C(=O)N(CC#N)C(=O)C2C2(c3occc31)C1CCC2CC1` (centres unmarked) [(D), reference compound]: in data set [1], the λmax is 535 nm, the Initial color density was 0.90% and the T1/2 was found to be 48 h.

In data set [2], `CC(=O)OCN1C(=O)C2=C(C3CC3)c3sc(Br)cc3C3(C4CC5CC(C4)CC3C5)C2C1=O` (centres unmarked) [(42)] displayed a λmax of 553 nm, an Initial color density of 0.51 and a T1/2 of 71 h. In data set [1], the λmax is on record as 548 nm, the Initial color density was determined as 0.57% and the T1/2 turned out to be 68 h.

Consider `Cc1cc2c(n1C)C1(C3CCCC1CCC3)C1C(=O)OC(=O)C1=C2C1CC1` (centres unmarked) [(53)], for which, in data set [2], the λmax is on record as 530 nm, the Initial color density is on record as 1.08 and the T1/2 is 60 h. In data set [1], the λmax came out at 525 nm, the Initial color density came to 1.18% and the T1/2 came out at 56 h.

In data set [1], `COCCOCN1C(=O)C2=C(C3(F)C(F)(F)C3(F)F)c3c(oc4ccccc34)C3(C2C1=O)C1(F)CCC3(F)CC1` (centres unmarked) [(16)] displayed a λmax of 498 nm, an Initial color density of 0.82% and a T1/2 of 91 h.

For the compound `CC(C)COC(=O)CN1C(=O)C2=C(C3C(CCl)C3CCl)c3cc(Br)sc3C3(C4CCCC3CCC4)C2C1=O` (centres unmarked) [(23)], in data set [1], the λmax stood at 539 nm, the Initial color density turned out to be 0.87% and the T1/2 was determined as 53 h.

In data set [2], `O=C1C2=C(C3CC3)c3cc(Br)sc3C3(C4CCCC3CCC4)C2C(=O)N1CCc1ccc2ccccc2c1` (stereo not drawn) [(3), 2-bromo-4-cyclopropyl-6,7-dihydrido-N-(β-naphtylethyl)spirobenzo[5,6-b]thiophenedicarboxyimido-7'9'-bicyclo[3.3.1]nonane] displayed a λmax of 550 nm, an Initial color density of 0.81 and a T1/2 of 49 h. Moreover, in data set [1], the λmax was 545 nm, the Initial color density came to 0.88% and the T1/2 amounted to 45 h.

In data set [1], `CCSC1CC1C1=C2C(=O)N(C(CC)COC(=O)OC[N+](=O)[O-])C(=O)C2C2(c3scc([N+](=O)[O-])c31)C1CC3CC2CC(C)(C3)C1` (centres unmarked) [(37)] returned a λmax of 540 nm, an Initial color density of 0.77% and a T1/2 of 75 h.

In data set [2], `O=C1C2=C(C3CC3)c3sc4c(c3C3(C5CCCC3CCC5)C2C(=O)N1CCc1cccc2ccccc12)CCCC4` (centres unmarked) [(33)] yielded a λmax of 525 nm, an Initial color density of 0.49 and a T1/2 of 80 h. In data set [1], this compound had a λmax of 519 nm, an Initial color density of 0.56% and a T1/2 of 7.8 h.

In data set [2], `CCC(C#N)N1C(=O)C2=C(C3CC3[N+](=O)[O-])c3c(sc4c3CCCC4)C3(C4CCCC3(C)CCC4)C2C1=O` (centres unmarked) [(25)] registered a λmax of 565 nm, an Initial color density of 0.65 and a T1/2 of 79 h. In data set [1], this compound registered a λmax of 562 nm, an Initial color density of 0.71% and a T1/2 of 76 h.

As for `COc1cc2c(c(OC)c1OC)C1(C3CCC1CC3)C1C(=O)OC(=O)C1=C2C1CC1` (centres unmarked) [(51)], in data set [2], the λmax is on record as 562 nm, the Initial color density is 0.82 and the T1/2 was 55 h. In data set [1], this compound came in with a λmax of 561 nm, an Initial color density of 0.92% and a T1/2 of 52 h.

In data set [1], `CC1=C2C(=O)N(CCCc3ccc4cc(N(C)C)ccc4c3)C(=O)C2C2(c3scc([N+](=O)[O-])c31)C1CC3CC(C1)CC2C3` (centres unmarked) [(E), reference compound] showed a λmax of 535 nm and a T1/2 of 14 h.

In data set [2], `N#CCN1C(=O)C2=C(C3CC3Oc3ccccc3)c3ccoc3C3(C4CCC3CC4)C2C1=O` (centres unmarked) [(22)] came in with a λmax of 559 nm, an Initial color density of 0.70 and a T1/2 of 93 h. Also, in data set [1], the λmax is 554 nm, the Initial color density is 0.81% and the T1/2 turned out to be 88 h.

For `CC1=C2C(=O)N(C[N+](=O)[O-])C(=O)C2C2(c3sc(C)cc31)C1CCC2CC1` (centres unmarked) [(C), reference compound], in data set [1], the λmax was 556 nm, the Initial color density is 0.72% and the T1/2 was 80 h.

With `COC12CCCC(CCC1)C21c2c(Cl)csc2C(C2CC2CCc2ccccc2)=C2C(=O)N(CC(=O)NCCBr)C(=O)C21` (centres unmarked) [(28)], in data set [1], the λmax is 526 nm, the Initial color density was found to be 0.56% and the T1/2 was 54 h.

In the case of `CN(C)c1ccc2cc(CCCN3C(=O)C4=C(C5CC5)c5c([N+](=O)[O-])csc5C5(C6CC7CC(C6)CC5C7)C4C3=O)ccc2c1` (centres unmarked) [(47)], in data set [1], the λmax is on record as 529 nm, the Initial color density was determined as 0.72% and the T1/2 worked out at 52 h.

Consider `Cc1cc2c(s1)C1(C3CC4CC(Cl)(C3)CC1(Cl)C4)C1C(=O)OC(=O)C1=C2C1CC1` (centres unmarked) [(58)], for which, in data set [1], the λmax is on record as 554 nm, the Initial color density is 1.24% and the T1/2 came out at 48 h.

As for `CC1=C2C(=O)N(CCc3cccc4ccccc34)C(=O)C2C2(c3c1sc1c3CCCC1)C1CCCC2CCC1` (centres unmarked) [(F), reference compound], in data set [1], the λmax was found to be 508 nm, the Initial color density came out at 0.47% and the T1/2 was 13 h.

In data set [1], `Cn1c2c(c3ccccc31)C1(C3CC4CC(C3)CC1C4)C1C(=O)N(CC(C)(C)CCOC(=O)CBr)C(=O)C1=C2C1CC1CCCc1ccccc1` (centres unmarked) [(38)] gave a λmax of 592 nm, an Initial color density of 0.61% and a T1/2 of 68 h.

Take `COC1CC1C1=C2C(=O)N(Cc3ccc4ccccc4c3)C(=O)C2C2(c3c1sc1ccccc31)C1CCC2CC1` (centres unmarked) [(19)]: in data set [1], the λmax was 524 nm, the Initial color density worked out at 0.58% and the T1/2 is 81 h.

In data set [1], `CCOC(=O)C12CC3CC(C1)C1(c4c([N+](=O)[O-])csc4C(C4CC4Br)=C4C(=O)N(CC(F)(F)F)C(=O)C41)C(C(=O)OCC)(C3)C2` (centres unmarked) [(43)] had a λmax of 509 nm, an Initial color density of 0.62% and a T1/2 of 72 h.

In data set [1], `CCC(C(=O)OCCc1ccc2ccccc2c1)N1C(=O)C2=C(C)c3ccsc3C3(C4CC5CC(C4)CC3C5)C2C1=O` (centres unmarked) [(A), reference compound] displayed a λmax of 520 nm, an Initial color density of 0.51% and a T1/2 of 24 h.

On to `COc1cc(OC)c2c(c1)C(C1C(C)(C)C1(C)C)=C1C(=O)N(Cc3ccc4ccccc4c3)C(=O)C1C21C2CCC1CC2` (centres unmarked) [(18)], for which, in data set [1], the λmax is listed as 603 nm, the Initial color density came out at 0.62% and the T1/2 stood at 61 h.

As to `CNC(=O)CN1C(=O)C2=C(C3CC3C(F)(F)F)c3cc([N+](=O)[O-])sc3C3(C4CCC3CC4)C2C1=O` (centres unmarked) [(11)], in data set [1], the λmax was 530 nm, the Initial color density was determined as 0.75% and the T1/2 was 65 h.

In data set [1], `N#CCOCN1C(=O)C2=C(C3CC3c3ccccc3)c3sccc3C3(C2C1=O)C1(Cl)CCC3(Cl)CC1` (centres unmarked) [(14)] gave a λmax of 552 nm, an Initial color density of 0.58% and a T1/2 of 69 h.

In data set [1], `COC12CCC(CC1)C21c2oc3ccccc3c2C(C2CC2(Br)Br)=C2C(=O)N(CC(=O)OC(C)(C)CCC#N)C(=O)C21` (centres unmarked) [(13)] came in with a λmax of 495 nm, an Initial color density of 0.69% and a T1/2 of 47 h.

As for `COc1cc(OC)c2c(c1)C(C1CC1O)=C1C(=O)N(C3CCC([N+](=O)[O-])CC3)C(=O)C1C21C2CCCC1(Cl)CCC2` (centres unmarked) [(29)], in data set [1], the λmax stood at 588 nm, the Initial color density was 0.52% and the T1/2 amounted to 62 h.

In data set [1], `CC1=C2C(=O)N(CCCCC(=O)OCCc3ccc4ccccc4c3)C(=O)C2C2(c3sccc31)C1CC3CC(C1)CC2C3` (centres unmarked) [(B), reference compound] displayed a λmax of 538 nm, an Initial color density of 0.49% and a T1/2 of 16 h.

In data set [1], `O=C1OC(=O)C2C1=C(C1CC1)c1c(oc3ccccc13)C21C2CCC1CC2` (centres unmarked) [(52)] came in with a λmax of 534 nm, an Initial color density of 1.21% and a T1/2 of 54 h.

`COC(=O)C(C)N1C(=O)C2=C(C3CC3OC(C)(C)C)c3cc(Cl)oc3C3(C4CCCC3(C)CC(C)(C)C4)C2C1=O` (centres unmarked) [(26)]: in data set [1], the λmax was determined as 546 nm, the Initial color density amounted to 0.78% and the T1/2 amounted to 72 h.
